# Reference: paper PMC8854621, “Functionally selective signaling and broad metabolic benefits by novel insulin receptor partial agonists” (Nature Communications, 2022)
# Like-named read-outs stand apart in the source and are kept apart here.
# Key:
# [1] = system: diabetic Yucatan minipigs; assay: Glucose lowering after s.c. bolus in type 1 diabetic Yucatan minipigs (PD); type: in vivo, minipig; details: individual animal
# Procedure: Data is presented as mean ± SEM, n = 6 animals per dose group. […] Source data are provided as a Source Data file.
# IRPAs were characterized in a Type 1 diabetic Yucatan minipig model. Briefly, male Yucatan minipigs, from Sinclair, were rendered Type 1 diabetic by Alloxan injections following a proprietary protocol developed by Sinclair Research Center (Auxvasse, MO). […] Minipigs used in these studies ranged from 10 months to 3 years old, had plasma glucose levels of approximately 300–400 mg/dL and were instrumented with two Jugular vein vascular access ports (VAP).
# IRPAs were administered to diabetic minipigs by subcutaneous injection. […] After dosing, sampling continued for 18 h.
# SAOS2/B10 cells = assay: Cellular proliferation, EdU incorporation (Click-it EdU); type: cell-based
# Excerpt: 3. […]
# Ethynyl-2′-deoxyuridine; ThermoFisher Scientific) assay. […]
substance,measurement,setting,value
"Tresiba: insulin Degludec from Novo Nordisk, a lipidated insulin",ΔGlucose,"[1]; 2 h post s.c. dose, replicate 1",-38 mg/dL
same,ΔGlucose,"[1]; 2 h post s.c. dose, replicate 2",-21 mg/dL
same,ΔGlucose,"[1]; 2 h post s.c. dose, replicate 3",5 mg/dL
same,ΔGlucose,"[1]; 2 h post s.c. dose, replicate 4",79 mg/dL
same,ΔGlucose,"[1]; 2 h post s.c. dose, replicate 5",69 mg/dL
same,ΔGlucose,"[1]; 2 h post s.c. dose, replicate 6",-28 mg/dL
same,ΔGlucose,"[1]; 2 h post s.c. dose, replicate 7",35 mg/dL
same,ΔGlucose,"[1]; 2 h post s.c. dose, replicate 8",-20 mg/dL
same,ΔGlucose,"[1]; 2 h post s.c. dose, replicate 9",40 mg/dL
same,ΔGlucose,"[1]; 2 h post s.c. dose, replicate 10",8 mg/dL
same,ΔGlucose,"[1]; 2 h post s.c. dose, replicate 11",-118 mg/dL
same,ΔGlucose,"[1]; 2 h post s.c. dose, replicate 12",93 mg/dL
same,ΔGlucose,"[1]; 2 h post s.c. dose, replicate 13",-13 mg/dL
same,ΔGlucose,"[1]; 2 h post s.c. dose, replicate 14",18 mg/dL
same,ΔGlucose,"[1]; 2 h post s.c. dose, replicate 15",-36 mg/dL
same,ΔGlucose,"[1]; 2 h post s.c. dose, replicate 16",58 mg/dL
same,ΔGlucose,"[1]; 2 h post s.c. dose, replicate 17",-126 mg/dL
same,ΔGlucose,"[1]; 2 h post s.c. dose, replicate 18",-12 mg/dL
same,ΔGlucose,"[1]; 2 h post s.c. dose, replicate 19",-60 mg/dL
same,ΔGlucose,"[1]; 3 h post s.c. dose, replicate 1",-67 mg/dL
same,ΔGlucose,"[1]; 3 h post s.c. dose, replicate 2",-79 mg/dL
same,ΔGlucose,"[1]; 3 h post s.c. dose, replicate 3",-1 mg/dL
same,ΔGlucose,"[1]; 3 h post s.c. dose, replicate 4",32 mg/dL
same,ΔGlucose,"[1]; 3 h post s.c. dose, replicate 5",97 mg/dL
same,ΔGlucose,"[1]; 3 h post s.c. dose, replicate 6",-58 mg/dL
same,ΔGlucose,"[1]; 3 h post s.c. dose, replicate 7",20 mg/dL
same,ΔGlucose,"[1]; 3 h post s.c. dose, replicate 8",-73 mg/dL
same,ΔGlucose,"[1]; 3 h post s.c. dose, replicate 9",97 mg/dL
same,ΔGlucose,"[1]; 3 h post s.c. dose, replicate 10",-61 mg/dL
same,ΔGlucose,"[1]; 3 h post s.c. dose, replicate 11",-233 mg/dL
same,ΔGlucose,"[1]; 3 h post s.c. dose, replicate 12",-9 mg/dL
same,ΔGlucose,"[1]; 3 h post s.c. dose, replicate 13",-76 mg/dL
same,ΔGlucose,"[1]; 3 h post s.c. dose, replicate 14",-2 mg/dL
same,ΔGlucose,"[1]; 3 h post s.c. dose, replicate 15",-89 mg/dL
same,ΔGlucose,"[1]; 3 h post s.c. dose, replicate 16",57 mg/dL
same,ΔGlucose,"[1]; 3 h post s.c. dose, replicate 17",-188 mg/dL
same,ΔGlucose,"[1]; 3 h post s.c. dose, replicate 18",-49 mg/dL
same,ΔGlucose,"[1]; 3 h post s.c. dose, replicate 19",-86 mg/dL
same,ΔGlucose,"[1]; 4 h post s.c. dose, replicate 1",-114 mg/dL
same,ΔGlucose,"[1]; 4 h post s.c. dose, replicate 2",-145 mg/dL
same,ΔGlucose,"[1]; 4 h post s.c. dose, replicate 3",-76 mg/dL
same,ΔGlucose,"[1]; 4 h post s.c. dose, replicate 4",21 mg/dL
same,ΔGlucose,"[1]; 4 h post s.c. dose, replicate 5",89 mg/dL
same,ΔGlucose,"[1]; 4 h post s.c. dose, replicate 6",-90 mg/dL
same,ΔGlucose,"[1]; 4 h post s.c. dose, replicate 7",-30 mg/dL
same,ΔGlucose,"[1]; 4 h post s.c. dose, replicate 8",-110 mg/dL
same,ΔGlucose,"[1]; 4 h post s.c. dose, replicate 9",88 mg/dL
same,ΔGlucose,"[1]; 4 h post s.c. dose, replicate 10",-83 mg/dL
same,ΔGlucose,"[1]; 4 h post s.c. dose, replicate 11",-283 mg/dL
same,ΔGlucose,"[1]; 4 h post s.c. dose, replicate 12",-105 mg/dL
same,ΔGlucose,"[1]; 4 h post s.c. dose, replicate 13",-142 mg/dL
same,ΔGlucose,"[1]; 4 h post s.c. dose, replicate 14",-49 mg/dL
same,ΔGlucose,"[1]; 4 h post s.c. dose, replicate 15",-147 mg/dL
same,ΔGlucose,"[1]; 4 h post s.c. dose, replicate 16",24 mg/dL
same,ΔGlucose,"[1]; 4 h post s.c. dose, replicate 17",-217 mg/dL
same,ΔGlucose,"[1]; 4 h post s.c. dose, replicate 19",-118 mg/dL
same,ΔGlucose,"[1]; 5 h post s.c. dose, replicate 1",-180 mg/dL
same,ΔGlucose,"[1]; 5 h post s.c. dose, replicate 2",-224 mg/dL
same,ΔGlucose,"[1]; 5 h post s.c. dose, replicate 3",-181 mg/dL
same,ΔGlucose,"[1]; 5 h post s.c. dose, replicate 4",9 mg/dL
same,ΔGlucose,"[1]; 5 h post s.c. dose, replicate 5",29 mg/dL
same,ΔGlucose,"[1]; 5 h post s.c. dose, replicate 6",-129 mg/dL
same,ΔGlucose,"[1]; 5 h post s.c. dose, replicate 7",-47 mg/dL
same,ΔGlucose,"[1]; 5 h post s.c. dose, replicate 8",-151 mg/dL
same,ΔGlucose,"[1]; […] post s.c. dose, replicate 4",27 mg/dL
same,ΔGlucose,"[1]; […] post s.c. dose, replicate 12",-48 mg/dL
IGF-1: insulin-like growth factor 1,EC50,"SAOS2/B10 cells; geometric mean of all independent titrations, EdU incorporation, four-parameter fit, read-out: Cell Proliferation Assay Total Ave EC50",0.149 nM
same,EC50,"SAOS2/B10 cells; titration 2, read-out: Cell Proliferation Assay EC50-2",0.397 nM
same,EC50,"SAOS2/B10 cells; titration 3, read-out: Cell Proliferation Assay EC50-3",0.154 nM
same,EC50,"SAOS2/B10 cells; titration 4, read-out: Cell Proliferation Assay EC50-4",0.0819 nM
same,EC50,"SAOS2/B10 cells; titration 5, read-out: Cell Proliferation Assay EC50-5",0.103 nM
same,EC50,"SAOS2/B10 cells; titration 6, read-out: Cell Proliferation Assay EC50-6",0.0688 nM
same,EC50,"SAOS2/B10 cells; titration 7, read-out: Cell Proliferation Assay EC50-7",0.0568 nM
same,EC50,"SAOS2/B10 cells; titration 8, read-out: Cell Proliferation Assay EC50-8",0.842 nM
same,EC50,"SAOS2/B10 cells; titration 9, read-out: Cell Proliferation Assay EC50-9",0.438 nM
same,EC50,"SAOS2/B10 cells; titration 10, read-out: Cell Proliferation Assay EC50-10",0.153 nM
